Data reported in patent US20040072753A1, “Peptides for use in the treatment of alzheimer's disease” (priority 2000, published 2004).
Where a SMILES comes first, the peptide text is derived from it. Where no end group is shown, it is not given here. [ ]: non-standard residue; d: D form. pS = N[C@@H](COP(=O)(O)O)C(=O)O

Experiments:
recombinant human cdc2 = recombinant human cdc2 (Homo sapiens, UniProt P06493); experiment: Binding of biotinylated Aβ peptides to recombinant human cdc2 coated plates (ELISA); details: for binding to human cdc2: biotinylated peptide 200 pM, 37° C. 4 hours
Sequence of recombinant human cdc2 (P06493 whole entry): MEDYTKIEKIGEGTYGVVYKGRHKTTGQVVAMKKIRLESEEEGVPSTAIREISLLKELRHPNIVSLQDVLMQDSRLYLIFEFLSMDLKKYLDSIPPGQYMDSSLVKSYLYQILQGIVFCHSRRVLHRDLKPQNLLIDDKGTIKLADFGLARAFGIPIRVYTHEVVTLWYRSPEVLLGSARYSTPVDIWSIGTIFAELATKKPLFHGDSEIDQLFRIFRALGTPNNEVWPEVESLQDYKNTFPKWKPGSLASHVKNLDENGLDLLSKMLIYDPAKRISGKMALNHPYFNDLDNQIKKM
Method: After washing to remove unbound material, an alkaline phosphatase polymer-streptavidin conjugate (Sigma, Dorset, UK) was added and incubated at 37° C. for 2 hours.

[1] = target: T1, recombinant p34-cdc2/cyclin B1 (Homo sapiens, UniProt P06493); experiment: Phosphorylation of biotinylated Aβ peptides by recombinant p34-cdc2/cyclin B1 (32P incorporation); assay type: biochemical; details: for phosphorylation by cdc2 (incorporation of 32P from γ32P-ATP): 25 μM biotinylated peptide, 10 min at 30° C.
T1 construct: purchased Promega, UK
T1 sequence (P06493 whole entry): as above
T1 sequence (P14635 whole entry partner): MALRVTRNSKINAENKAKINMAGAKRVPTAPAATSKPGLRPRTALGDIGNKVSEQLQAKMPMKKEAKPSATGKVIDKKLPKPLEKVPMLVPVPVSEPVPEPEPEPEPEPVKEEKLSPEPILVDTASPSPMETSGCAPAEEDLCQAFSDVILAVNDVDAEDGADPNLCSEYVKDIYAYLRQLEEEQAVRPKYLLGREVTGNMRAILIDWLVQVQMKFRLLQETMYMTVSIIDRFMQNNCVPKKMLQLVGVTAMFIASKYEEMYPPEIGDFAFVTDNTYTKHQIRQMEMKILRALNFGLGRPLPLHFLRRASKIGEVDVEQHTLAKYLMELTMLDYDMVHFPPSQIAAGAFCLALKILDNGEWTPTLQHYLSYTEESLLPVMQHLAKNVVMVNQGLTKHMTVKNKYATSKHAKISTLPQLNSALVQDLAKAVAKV
Source text: (§1) The membrane was washed four times in 2 M NaCl, followed by four times in 2 M NaCl containing 1% (v/v) H3PO4 and finally twice in deionized H2O to remove unbound material.

[2] = test system: SP2/0-Ag-14 mouse myeloma cells; experiment: Cytotoxicity of Aβ peptides, trypan blue dye exclusion; assay type: cell-based; details: test peptides 20 μM, 24 hours
Method: SP2/0-Ag-14 mouse myeloma cells were maintained in RPMI 1640 medium containing 10% fetal calf serum at 37° C. in a 5% CO2 humidified atmosphere. For cytotoxicity experiments 2×1 05 cells were plated in 24 well dishes in 1 ml PBS containing 0.1% BSA and test peptides (20 μM) for 24 hours. Cell viability was determined by trypan blue dye exclusion with at least 100 cells counted per well (Milton, Biochem. J. 344: 293-296 (1999)).

Human NT-2 neurons [3] = experiment: Cytotoxicity assay, MTT reduction in human NT-2 neurons; assay type: cell-based; details: for effect on MTT utilisation: 24 h incubation
Method: In order to assess the effects of Aβ phosphorylation on the cytotoxic properties of Aβ peptides, a series of Aβ 17-35 derivatives were synthesised. The 17-35 region of Aβ contains the serine residue (serine 26) which is proposed to be phosphorylated by p34-cdc2, and also contains the ERAB binding (17-20) and cytotoxic domains (31-35) thought to play roles in Aβ cytotoxicity. The peptides were tested in a cytotoxicity assay as follows. Human NT-2 (NTera2/D1) precursor cells were propagated in DMEM/F12 medium supplemented with retinoic acid for 5-6 weeks prior to harvesting and replating in the presence of mitotic inhibitors, to generate post-mitotic Human NT-2 neurons. For cytotoxicity experiments, 5×10^3 cells/100 μl, medium were plated in Poly-D-lysine coated 96 well plates. Test peptides (20 μM) were added directly to culture medium prior to incubation for 24 h. Cell viability was determined by measurement of MTT (3-(4,5-dimethylthiazol-2-yl)-2,5-diphenyl tetrazolium bromide) reduction (Shearman, Methods Enzymol. 309: 716-723 (1999)). After incubation with peptides MTT (10 μl: 12 mM stock) was added and cells incubated for a further 4 hours. Cell lysis buffer [100 μl/well; 20% (v/v) SDS, 50% (v/v) N,N-dimethylformamide, pH 4.7] was added and, after repeated pipetting to lyse cells, calorimetric determination of MTT formazan product formation was determined by measuring the absorbance change at 540 nm. Control levels in the absence of peptide were taken as 100%, with the absorbance in the absence of cells taken as 0%.

Human NT-2 neurons [4] = experiment: Immunoassay of ir-pSAβ and ir-Aβ in extracts of NT-2 neurons exposed to Aβ 17-35 derivatives; assay type: cell-based; details: for levels of immunoreactive Aβ (ir-Aβ) in exposed cells: cell extracts; for ir-pSAβ in extracts of exposed cells: versus control cells
Method: To establish whether Aβ is phosphorylated in the Alzheimer's brain, Alzheimer disease brain sections were obtained from Novagen Inc (Madison, Wis., USA. Cat No: 70298-3; Lot No: A301036). Sections were deparaffinised and extracted in DEA buffer supplemented with 0.1 mM sodium vanadate. Extracts from NT-2 neurons were also prepared using the same buffer. Using a polyclonal anti-AB 15-30 antiserum plus Protein-A agarose, the Aβ was immunoprecipitated. The resultant extracts were further purified using a Sep-Pak C18 extraction step. Columns were pre-wetted with methanol and 0.5M acetic acid and the samples were applied in 20% acetonitrile in 0.1% TFA. […] After drying under a stream of nitrogen, samples were resuspended in appropriate buffer. For SDS-PAGE analysis, samples were resuspended in gel loading buffer and run on a 15% acrylamide gel. After immunoblotting onto nitrocellulose membranes, the blots were stained with anti-Aβ, anti-phosphoserine, anti-phosphotyrosine or anti-phosphothreonine antibodies. Bands were visualized with anti-mouse or anti-rabbit IgG-HRP conjugates and TMB membrane substrate. […] ELISA plates were coated with anti-phosphoserine antiserum for pSAβ determination and blocked with 5% dried milk. Samples or synthetic Aβ standards (Aβ 17-35 pS) were applied in PBS containing 0.1% BSA plus 0.05% Tween 20. Monoclonal antibody ALI-01 was added and incubated for 2 hrs. After washing to remove unbound material, ir-pSAβ was detected using an anti-rabbit IgG-HRP conjugate and TMB substrate. A similar assay in which the pS antibody was replaced with a polyclonal anti-Aβ antibody was used to measure Aβ levels.

biotinylated Aβ 1-42 = biotinylated Aβ 1-42 (Homo sapiens, UniProt P05067); experiment: Binding of biotinylated Aβ 1-42 to CAβBP or EAβBP coated plates (ELISA, Scatchard); details: biotinylated peptide 200 pM
Sequence of biotinylated Aβ 1-42 (P05067 672-713 limits assumed): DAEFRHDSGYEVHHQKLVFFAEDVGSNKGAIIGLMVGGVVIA
Method: After washing to remove unbound material, an alkaline phosphatase polymer-streptavidin conjugate (Sigma, Dorset, UK) was added and incubated at 37° C. for 2 hours. After washing to remove unbound material, p-nitrophenylphosphate substrate was added and absorbance at 405 nm determined.

biotinylated Aβ 25-35 = biotinylated Aβ 25-35 (Homo sapiens, UniProt P05067); experiment: Binding of biotinylated Aβ 25-35 to CAβBP or EAβBP coated plates (ELISA); details: biotinylated peptide 200 pM
Method: Biotinylated Aβ1-42, Aβ12-28 and Aβ 25-35 (from SEQ ID NO. 2) were prepared using a LinKit-Biolink kit (ISL, Paignton, UK). ELISA plates were coated with CAβBP (catalase residues 400409) or EAβBD (ERAB residues 99-108) (1 μg ml^−1) in carbonate buffer and unoccupied sites blocked with 5% (w/v) dried milk. Biotinylated peptides (200 pM) were incubated alone, with control peptides or with unlabelled Aβ peptides in PBS (containing 0.1% BSA and 0.05% Tween-20) at 37° C. for 4 hours. After washing to remove unbound material, an alkaline phosphatase polymer-streptavidin conjugate (Sigma, Dorset, UK) was added and incubated at 37° C. for 2 hours. After washing to remove unbound material, p-nitrophenylphosphate substrate was added and absorbance at 405 nm determined. Affinity constants were determined by incubating catalase or CAβBP coated plates with biotinylated peptides (200 pM) plus Aβ peptides over a range of concentrations (0-100 nM) and detection of bound peptides was carried out by ELISA.

[5] = target: T2, catalase EC 1.11.1.6 from human erythrocytes (Homo sapiens, UniProt P04040); experiment: Catalase enzyme activity, inhibition by Aβ peptides; assay type: biochemical; details: test peptides 2 μM
T2 construct: catalase EC 1.11.1.6 from human erythrocytes (Sigma, Dorset, UK) was used; purchased Sigma, Dorset, UK; host or cells: human erythrocytes
T2 sequence (P04040 2-527 limits assumed): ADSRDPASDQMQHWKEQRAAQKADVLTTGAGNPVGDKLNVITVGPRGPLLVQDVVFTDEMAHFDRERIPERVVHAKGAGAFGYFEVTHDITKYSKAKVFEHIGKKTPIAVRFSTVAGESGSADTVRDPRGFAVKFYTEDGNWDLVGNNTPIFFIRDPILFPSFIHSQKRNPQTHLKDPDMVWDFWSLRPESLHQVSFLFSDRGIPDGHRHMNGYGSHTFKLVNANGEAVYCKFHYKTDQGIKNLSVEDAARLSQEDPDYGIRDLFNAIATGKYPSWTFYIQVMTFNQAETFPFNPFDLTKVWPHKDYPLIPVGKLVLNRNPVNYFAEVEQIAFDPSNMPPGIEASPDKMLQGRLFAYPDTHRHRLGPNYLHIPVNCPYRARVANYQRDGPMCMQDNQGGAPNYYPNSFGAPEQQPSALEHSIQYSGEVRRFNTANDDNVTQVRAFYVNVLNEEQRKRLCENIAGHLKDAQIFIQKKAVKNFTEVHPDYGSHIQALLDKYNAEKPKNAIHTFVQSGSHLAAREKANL
Method: For catalase activity catalase EC 1.11.1.6 from human erythrocytes (Sigma, Dorset, UK) was used for all incubation experiments. Activity of Catalase (5kU I^−1) incubated with test peptides (2 μM) was determined after incubation in 60 mM sodium-potassium phosphate buffer at 37° C. in a total volume of 100 μl. After incubation catalase activity was determined by mixing 50 μl sample with 50 μl substrate (6.5 μmol H2O2 in phosphate buffer) for 60 secs, adding 100 μl of 32.4 mM ammonium molybdate and measurement of absorbance change at 405 nm. Catalase activity was calculated from a standard curve (0-10OkU I^−1) using purified human catalase of known activity (Milton, Biochem. J. 344: 293-296 (1999)).

cdc2/cyclin B1 = target: T3, cdc2/cyclin B1 (Homo sapiens, UniProt P06493+P14635); experiment: cdc2/cyclin B1 phosphorylation of biotinylated histone H1 substrate peptide; assay type: biochemical
T3 construct: purchased Promega, UK
T3 sequence (P06493 whole entry): as the sequence (P06493 whole entry) above
T3 sequence (P14635 whole entry): as the sequence (P14635 whole entry partner) above
Source text: as §1
Since Aβ binds to both the cdc2 and cyclin B1 components of the active enzyme it is possible that Aβ modulates the activity of the kinase.

## Aβ 17-28: Aβ fragment, residues 17-28 (LVFFAEDVGSNK)
Recombinant human cdc2; biotinylated Aβ 1-40 (FIG. 5)
  inhibition of the binding of Aβ to cdc2: inhibited
[1]
  inhibition of phosphorylation of Aβ: inhibited

## CC(C)C[C@H](NC(=O)[C@H](CC(C)C)NC(=O)[C@H](CCCNC(=N)N)NC(=O)[C@H](CCCCN)NC(=O)[C@H](CCCCN)NC(=O)[C@H](Cc1c[nH]cn1)NC(=O)[C@H](CC(N)=O)NC(=O)[C@H](Cc1ccccc1)NC(=O)[C@@H](NC(=O)[C@@H](N)C(C)C)C(C)C)C(=O)O [AβAS(F) 14-23] (H-VVFNHKKRLL-OH)
[2]
  block of the cytotoxicity of Aβ 1-42: able to block
  block of the cytotoxicity of Aβ fragments containing residues 17-35: able to block

## Aβ 17-35 S26A: Aβ 17-35 in which the serine residue for phosphorylation has been mutated to an alanine residue (LVFFAEDVGANKGAIIGLM; Amyloid-beta protein 42; UniProt P05067 688-706, looked up, variant S26A)
Human NT-2 neurons [3]
  effect on MTT utilisation: no effect
Human NT-2 neurons [4]
  levels of immunoreactive Aβ (ir-Aβ) in exposed cells: increased levels
  ir-pSAβ in extracts of exposed cells: no difference to control cells

## C[C@H](NC(=O)CN)C(=O)N1CCC[C@H]1C(=O)N[C@@H](CC(N)=O)C(=O)N[C@@H](Cc1ccc(O)cc1)C(=O)N[C@@H](Cc1ccc(O)cc1)C(=O)N1CCC[C@H]1C(=O)N[C@@H](CC(N)=O)C(=O)N[C@@H](CO)C(=O)N[C@@H](Cc1ccccc1)C(=O)O [CAβBP]
Biotinylated Aβ 1-42
  binding of biotinylated Aβ 1-42: specifically bound
Biotinylated Aβ 25-35
  binding of biotinylated Aβ 25-35: specifically bound
[5]
  block of the inhibition of catalase enzyme activity by Aβ 1-42: able to block
  block of the inhibition of catalase enzyme activity by Aβ fragments containing residues 31-35: able to block
[2]
  block of the cytotoxicity of Aβ 1-42: able to block
  block of the cytotoxicity of Aβ fragments containing residues 31-35: able to block

## PKTPKKAKKL (listed as Homo sapiens) [H1 peptide]
[1]; substrate of cdc2/cyclin B1, read-out: Michaelis constant (KM) for the phosphorylation
  Km: 2.7 µM

## Aβ 1-43: Amyloid-β 1-43 region, SEQ ID NO. 2
Recombinant human cdc2
  binding to human cdc2: binds to
[1]
  phosphorylation by cdc2 (incorporation of 32P from γ32P-ATP): phosphorylated

## Aβ 31-35: shortest cytotoxic form of Aβ (IIGLM)
cdc2/cyclin B1
  effect on phosphorylation of the H1 peptide by cdc2/cyclin B1: increased

## Aβ 1-42: major form of Amyloid-β protein, residues 1-42
Recombinant human cdc2
  binding to human cdc2: bound
[1]
  phosphorylation by cdc2 (incorporation of 32P from γ32P-ATP): incorporated

## CDKP1: synthetic peptide corresponding to cdc2 residues 119-133 (CHSRRVLHRDLKPQN)
[1]
  inhibition of phosphorylation of Aβ: inhibited

## Aβ 17-35 pS26: Aβ 17-35 peptide with a phosphorylated serine residue (LVFFAEDVG[pS]NKGAIIGLM; UniProt P05067 688-706, looked up, fragment)
Human NT-2 neurons [3]
  potency in MTT reduction compared with the non-phosphorylated peptide: significantly more potent
  effect on MTT utilisation: dose dependent reduction
Human NT-2 neurons [4]
  levels of immunoreactive Aβ (ir-Aβ) in exposed cells: increased levels
  ir-pSAβ in extracts of exposed cells: no difference to control cells

## CC(C)C[C@H](N)C(=O)N[C@@H](Cc1ccccc1)C(=O)N1CCC[C@H]1C(=O)N[C@@H](CCCNC(=N)N)C(=O)N[C@@H](Cc1ccc(O)cc1)C(=O)N[C@@H](Cc1ccc(O)cc1)C(=O)N1CCC[C@H]1C(=O)N[C@@H](CCC(=O)O)C(=O)N[C@@H](Cc1ccc(O)cc1)C(=O)N[C@@H](Cc1c[nH]cn1)C(=O)O [AβAS(F) 27-36] (H-LFPRYYPEYH-OH)
[2]
  block of the cytotoxicity of Aβ 1-42: able to block
  block of the cytotoxicity of Aβ fragments containing residues 25-35: able to block

## Aβ 17-35: Aβ fragment 17-35 containing serine 26, ERAB binding and cytotoxic domains (LVFFAEDVGSNKGAIIGLM)
Human NT-2 neurons [3]
  effect on MTT utilisation: dose dependent reduction
Human NT-2 neurons [4]
  levels of immunoreactive Aβ (ir-Aβ) in exposed cells: increased levels
  ir-pSAβ in extracts of exposed cells: increased amounts
cdc2/cyclin B1
  effect on phosphorylation of the H1 peptide by cdc2/cyclin B1: increased
